Test results published in patent US11672814B2, “NGNA compositions and methods of use” (priority 2008, dated 2023).

Test system: influenza A (H1N1)
Assay: Influenza virus mouse model, feed supplemented with N5G
Assay type: in vivo
From the text: The overall purpose of the study was to determine whether the N5G nutritional supplement has the ability to have significant impact on clinical disease outcomes caused by influenza virus in a mouse animal model.
The experimental design included adherence to a strict feeding schedule, which included 30 days of acclimation of mice to a defined base feed (AIN-93M) provided by Purina TestDiet, Inc. Control animals remained continuously fed with the defined base feed, while the experimental mouse group was fed with the base feed supplemented with 0.35% of N5G.
Experimental and control mouse groups were infected intranasally with 107.5 TCID50 influenza A (H1N1) with each mouse receiving 5iL of viral inoculum per nostril. The experimental parameters followed during the study were: 1) mouse weight changes; 2) food intake changes; 3) clinical signs of disease; 4) lung tissue pathology; 5) lung consolidation scores; 6) changes in viral loads.
Overall, the experimental design was executed without any major obstacles. As expected, there was minor occasional wasting of feed in some cages (mice chewed on feed which was dropped on the bottom of the cage). In every instance noted on daily observations, the residual feed was weighed, but it was excluded in any statistical calculations as well as in the calculation of baseline feed intake.
As expected, all influenza infected mice developed clinical signs of disease starting 2 days post infection. Clinical signs included: 1) ruffled fur, 2) inactivity, 3) hunching, 4) death, 5) weight loss, and 6) loss of appetite.
Clinical signs 1-4 were scored by two independent observers using a scale of 0-5. The cumulative scores were plotted and statistically analyzed. Statistical analyses were performed using SAS v.9.1.3. An analysis of variance (ANOVA) of a repeated measures design was calculated in a split-plot arrangement of treatments, with the treatment group on the main plot, and the subplot including day and treatment by day interactions. Interaction of pairwise comparisons of least square means was performed with a pairwise t-test with pre-planned comparisons. This statistical methodology was used for all comparisons in the study.
D. The most important aspect of influenza infections is the resultant lung immunopathology. Typically, viral replication as well as infiltration of lymphocytes causes substantial damage to lung tissues. In fact, it is believed that infiltration of lymphocytes and their negative effects on lungs tissues is the most important parameter of influenza-related morbidity and mortality in humans. Consequently, particular care was taken to examine the tissues of mice for signs of histopathological changes. The following evaluation criteria were utilized to score these changes: 1) Lung consolidation scores (LCS); 2) Histopathological scores (HS). LCS were rated as follows: grade 1: no plum coloration; grade 2: minimum plum coloration; grade 3: medium plum coloration; grade 4: maximum plum coloration. HS were rated as follows: Grade 0: no overt histological change; grade 1+: only bronchial/bronchiolar and/or peri-bronchial/bronchiolar/vascular changes; grade 2+: 1-10% pulmonary parenchyma affected; grade 3+: 11-30% pulmonary parenchyma affected; grade 4:+: 31-50% pulmonary parenchyma affected; grade 5+: greater than 50% pulmonary parenchyma affected.

For `O=C(CO)N[C@H]1[C@H]([C@H](O)[C@H](O)CO)O[C@](O)(C(=O)O)C[C@@H]1O` [NGNA, n-glycolylneuraminic acid], the “Viral titers from lung homogenates” value (mice, 2 days post infection, treated and untreated) was “less than 100 plaque forming units (PFU) per 250iL of homogenate”, the “Clinical signs 1-4 scores (ruffled fur, inactivity, hunching, death), treated versus untreated” value (mice, base feed with 0.35% N5G, days 6-8 post infection, FIG. 3) was “Statistically significant differences” and the “Histopathological scores, treated versus untreated” value (mice, day 6 post infection, grades 0 to 5+, FIG. 7) was “statistically significant difference”. The “Viral titers from lung homogenates, treated versus untreated” value (mice, days 2, 4, 6, 8 and 21 post infection, one mouse per group per time point) was “No significant differences”, the “% change in mouse weights, untreated versus treated” value (mice, days 3-9 post infection, FIG. 5) was “highly significant reduction in body weights was observed in the control mouse group” and the “% daily feed intake” value (mice, days 5-6 post infection, FIG. 4, group with the loss not stated) was “statistically significant loss of appetite”. The “Lung consolidation scores, treated versus untreated” value (mice, grades 1-4, FIG. 6) was ““trend” toward a healthier status of treated versus untreated mice. However, there results were not statistically significant” and the “Effect on ameliorating clinical symptoms and adverse pathological implication of influenza infection” value (mouse experimental model, overall conclusion) was “significant effect”.
